For data set [1] the following is noted: in vivo.
Description: (§1) For the toxicokinetic study, there were four groups of rabbit. […] Blood was collected and processed for plasma at predose, 5, 30, 60, 120, 240, and 360 minutes, and 24, 48, 72, 96, and 168 hours after administration.
(§2) Approximately 1 mL of blood was collected by direct venipuncture of the jugular vein with a 3 mL syringe and 21 GA×1″ needle. Blood was immediately transferred into anticoagulant (potassium EDTA) coated microcentrifuge tubes. Blood was then centrifuged for five minutes at 3000×G at 4° C. Plasma was immediately separated into another microcentrifuge tube then kept in −20° C. freezer for LC-MS analysis.
(§3) Briefly, the samples were assayed by Shimadzu SCL-10A controller with LC-10AD pump. The mobile phase was 50% by volume of 10 mM ammonium acetate and 50% by volume of methanol. The HPLC column was a)(Bridge Phenyl column, 5 μm, 50×2.0 mm. An isocratic elution was applied at 0.500 mL/min flow rate and column temperature was 30° C. […] The injection volume was 10 μL. […] The limit of quantitation (LOQ) of this method was 1 ng/mL.
(§4) Toxicokinetic data analysis was based on standard noncompartmental pharmacokinetic methods. […] The maximum observed plasma concentration (Cmax) was determined by visual estimation from the data plot. Area under the plasma concentration vs. time curve from 0 to the time of the last measurable concentration (AUC) was calculated by the linear trapezoidal method. Elimination half-life (t1/2) was calculated as ln(2)/ke, where ke is the elimination rate constant determined by linear regression of the last three analytically measured points on the plasma concentration vs. time curve.
Data set [2] concerns rabbit coronary microvessel endothelium. The conditions noted are these: cited from earlier work.
The test system of data set [3] is New Zealand White rabbits. To be noted: rabbit, in vivo.
Description: For the ocular toxicity study, there were four groups. […] The total exposure was 12 doses over the period of 12 weeks. Clinical observations were performed on weekdays, and before and after each dosing. Following the final observations (i.e., one week after the last dose), the rabbits were sacrificed and the eyes were processed for histological evaluation.
One drop of sterile proparacaine hydrochloride (a local anesthetic) was put on the eye (to be treated) 5 minutes before dose administration. […] The position of the device was checked to ensure that the active agent matrix was in immediate contact with the white part of the eye but not the cornea. Digital timers were used for accurate application times (i.e., 5, 10, or 20 minutes). After the given application duration, the applicator was carefully removed from the eye.
All animals (both left and right eyes) were examined by indirect ophthalmoscopy of the cornea, conjunctiva, anterior chamber, vitreous, posterior chamber, and sclera. One to two drops each of phenylephrine hydrochloride and cyclopentolate hydrochloride were used as mydriatics. Observations on the anterior and posterior segments of the eye were made, graded, and recorded. A modified McDonald-Shadduck scale was used for grading eye irritation and ocular toxicity.
The histopathological processing and evaluation were conducted at Colorado Histo-Prep (Fort Collins, Colo.). Briefly, a central cut of the eye globe was taken, as well as two cuts on either side of the central cut (calottes) at trim. For each eye, the central cut was placed into one cassette, and the two calottes were placed together into a separate cassette. The tissues were processed, embedded in paraffin wax, sectioned by microtome, and stained. Histopathology of the tissues was conducted on slides stained with hematoxylin and eosin. A pathologist who evaluated the tissues had no knowledge of the specific pharmacologic activity or formulation of the test articles. Standardized toxicological pathology criteria and nomenclature for the rabbit were used to categorize microscopic tissue changes.
The nature of a further data set: in vivo. The conditions noted are these: rabbit.
For data set [4], the system named is New Zealand White (NZW) rabbits. To be noted: rabbit, in vivo.
Description: This procedure was repeated 24 hours later with the shorter application duration of 5 minutes.
Eight (4 male and 4 female) NZW rabbits, 5-6 months old, were assigned to two groups according to the following study design:
For data set [5] the following is noted: human, in vivo, 1 mg; cited from earlier work.
Data set [6] relates to New Zealand White rabbits. The conditions noted are these: rabbit, in vivo. This is another data set of the same source.
Description: Thirty six New Zealand White rabbits between 5 and 6 months of age were used for this study. […] Each group contained 12 rabbits, 6 males and 6 females. Rabbits were dosed in their right eye on study days 1, 2, 8, 15, 22 and 29 using a trans-scleral application system. Dosing was accomplished by filling the system with the appropriate test or control article and placing the applicator in full contact with the sclera of the right eye for 5 minutes. The contralateral eye served as an untreated control. Intraocular pressure (IOP) was measured via rebound tonometry in both eyes prior to dosing and within 5 minutes thereafter on days 1, 15 and 29. IOP was also measured the day after dosing on days 16 and 30 and in the recovery animals on day 43.
The conditions of data set [7]: rabbit, in vivo, 1 mg; cited from earlier work.

The structures appear in SMILES notation. “And” between values parts separate entries of the source, which are not always exact repeats. Equal entries are not always repeated. Where two headings read alike, the source gives them in different places.

One may read the Tmax as the time from dosing to the highest level.

Description for in vivo: as §1, §2, §3, §4

Take `C[C@@H]1C[C@H]2[C@@H]3CCC4=CC(=O)C=C[C@]4(C)[C@@]3(F)[C@@H](O)C[C@]2(C)[C@@]1(O)C(=O)CO` [DEX, dexamethasone]: the “Tmax of DEX in plasma” value in data set [1] (rabbit) was 30 min. Besides, in data set [2], the “concentration that can inhibit prostaglandin release” value was 10^−7 M and ~40 ng/mL.
Turning to `C[C@@H]1C[C@H]2[C@@H]3CCC4=CC(=O)C=C[C@]4(C)[C@@]3(F)[C@@H](O)C[C@]2(C)[C@@]1(O)C(=O)COP(=O)(O)O` [DSP, dexamethasone sodium phosphate], in data set [3] (New Zealand White, 4 weeks), the “corneal surface covered by corneal haze lesion” value was “about 40%”. Moreover, the “typical conjunctival injection score immediately after treatment” value in data set [3] (New Zealand White, 12 weeks) is 1 or <1. In addition, in data set [3], the “Ocular Histopathology” value is on record as “NSF”; the histopathology finding entry was “mild chronic inflammation at the limbus of the cornea”; the histopathology of eyes entry is “morphologically normal”; the “nature of ocular findings (conjunctival injection, discharge, corneal haze) in treated eyes” value is “transient and mild in nature”. Also, the time to peak (Tmax) in the data set “in vivo” was 5 min. Moreover, the “IOP increase (mild effect)” value in data set [4] (both, New Zealand White) was 5-8 mmHg. Also, in data set [4] (male, New Zealand White), the “IOP increase (absolute value) compared to control eye change, immediately after application” value was 2 mmHg; the “IOP increase (absolute value) compared to control eye change, immediately after treatment” value is recorded as 8 mmHg; the “change in IOP within one hour after treatment” value came to 4 mmHg. In addition, in data set [4], the “effect on the IOP of the treated eye (statistical analysis)” value is on record as “no effect”, the “time for IOP to return to a normal range after treatment” value is “within one half hour”, the “time for IOP to return to below baseline after treatment” value is “within one half hour” and the “time for IOP to return to normal after treatment” value is reported as “within one half hour”. The “Cmax after IV injection” value in data set [5] was 10.5 ng/mL. Moreover, in data set [1], the “half-life of the drug in the rabbit” value was 120 to 180 min. Further, the “IOP effects related to dosing” value in data set [6] was “no IOP effects related to dosing”. In data set [7], the “Cmax after IV injection” value is recorded as 786 ng/mL.

Source of the values: patent publication US20190105194A1, “METHODS OF TREATING A SUBJECT WITH AN OCULAR CONDITION RESPONSIVE TO STEROID THERAPY” (Aciont Inc., priority 2017, published 2019).
